Assay results published in patent US8609836B2, “4-aryl-2-anilino-pyrimidines” (Janssen Pharmaceutica NV, priority 2008, dated 2013).
pIC50: −log10 of the molar value.

Assays:
PLK1 T210D (h) = PLK1 T210D (h) (Homo sapiens, UniProt P53350, T210D); assay: PLK1 human kinase inhibition, SPA; format: biochemical; details: read-out: PLK1 pIC50 (converted)
Method: (§1) The in vitro inhibition of a panel of kinases was assessed using either the scintillation proximity assay (SPA) as described by Cook, N. D. et al., Advances in Experimental Medicine and Biology (1991), 36; p. 525-528.
(§2) In the SPA technology the activity of the kinase of interest is measured using an appropriate biotinylated substrate that is incubated with the aforementioned kinase protein in the presence of (^33P) radiolabeled ATP. (^33P) Phosphorylation of the substrate is subsequently measured through binding of the phosphorylated substrate to streptavidine coated beads that are based on the scintillant poly(vinyl toluene) (PVT-Beads). The scintillation intensity is detected by imaging on Leadseeker.
(§3) All kinases are pre-diluted to a 10× working concentration prior to addition into the assay. The composition of the dilution buffer for each kinase is detailed below.
In a final reaction volume of 30 μl, PLK1 T210D (h) (0.125 ng/ml) is incubated with 50 mM Hepes pH 8.0, 2 mM MnCl2, 1 mM DTT, 2 μM of peptide Biotin-Tds linker-[…], 0.1 μM ATP and 2 nM [γ-^33P-ATP] (6.0 μCi/ml). After incubation of 40 minutes at room temperature, the reaction is stopped by addition of 40 μL of stop solution containing 8.7 mM EDTA, BSA 0.17%, 0.17% Triton X-100, 25 mg/ml SPA beads (GE-healthcare). The plate is centrifuged and read for Scintillation imaging on Leadseeker.

PLK4 (h) = PLK4 (h) (Homo sapiens, UniProt O00444); assay: PLK-4 human kinase inhibition, scintillation proximity assay (SPA); format: biochemical; details: read-out: PLK4 pIC50 (converted)
Method: as §2, §3
(6.0 μCi/ml). After incubation of 60 minutes at room temperature, the reaction is stopped by addition of 40 μL of stop solution containing 8.7 mM EDTA, BSA 0.17%, 0.17% Triton X-100, 1.7 mg/ml SPA beads (GE-healthcare). The plate is centrifuged and read for Scintillation imaging on Leadseeker.

PLK2 (h) = PLK2 (h) (Homo sapiens, UniProt Q9NYY3); assay: PLK2 human kinase inhibition, SPA; format: biochemical; details: read-out: PLK2 pIC50 (converted)
Method: as §1, §2, §3
In a final reaction volume of 30 μl, PLK2 (h) (30 μg/ml) is incubated with 50 mM Hepes pH 8.0, 2 mM MnCl2, 1 mM DTT, 2 μM of peptide Biotin-Tds linker-[…], 0.1 μM ATP and 2 nM [γ-^33P-ATP] (6.0 μCi/ml). After incubation of 20 minutes at room temperature, the reaction is stopped by addition of 40 μL of stop solution containing 8.7 mM EDTA, BSA 0.17%, 0.17% Triton X-100, 25 mg/ml SPA beads (GE-healthcare). The plate is centrifuged and read for Scintillation imaging on Leadseeker.

AuroraB (h) = AuroraB (h) (Homo sapiens, UniProt Q96GD4); assay: Aurora-B human kinase inhibition, SPA; format: biochemical; details: read-out: AuroraB pIC50 (converted)
Method: as §1, §2, §3
In a final reaction volume of 30 μl, AuroraB (h) (0.5 μg/ml) is incubated with 60 mM Hepes pH 7.5, 3 mM MgCl2, 3 mM MnCl2, 3 μM Na3VO4, 0.05 mg/ml PEG, 2 mM DTT, 3 μM Biotin-[…]-OH, 0.5 μM ATP and 2.2 nM [γ-^33P-ATP] (6.8 μCi/ml). After incubation of 60 minutes at room temperature, the reaction is stopped by addition of 40 μL of stop solution containing 8.7 mM EDTA, BSA 0.17%, 0.17% Triton X-100, 5 mg/ml SPA beads (GE-healthcare). The plate is centrifuged and read for Scintillation imaging on Leadseeker.

CDK4/CyclinD1 (h) = CDK4/CyclinD1 (h) (Homo sapiens, UniProt P11802); assay: CDK4/CyclinD1 human kinase inhibition, SPA with GST-pRb substrate; format: biochemical; details: read-out: CDK4 pIC50 (converted)
Method: as §1, §2, §3
In a final reaction volume of 30 μl, CDK4/CyclinD1 (h) (2.5 μg/ml) is incubated with 50 mM Hepes pH 7.5, 8 mM NaF, 20 mM MgCl2, 1 mM DTT, 40 μg/ml of substrate GST-pRb, 2 nM [γ-^33P-ATP] (6.0 μCi/ml). After incubation of 60 minutes at room temperature, the reaction is stopped by addition of 40 μL of stop solution containing 8.7 mM EDTA, 0.17% Triton X-100, 25 mg/ml Glutathion SPA Beads (GE-healthcare). The plate is centrifuged and read for Scintillation topcount analyzer.

CDK1/CyclinB (h) = CDK1/CyclinB (h) (Homo sapiens, UniProt P06493); assay: CDK1/CyclinB human kinase inhibition, Invitrogen's FRET assay (Z'lyte); format: biochemical; details: read-out: CDK1 pIC50 (converted)
Method: as §1, §3
In a final reaction volume of 10 μl, CDK1/CyclinB (h) (0.2 μg/ml) is incubated with 50 mM Hepes pH 7.5, 10 mM MgCl2, 1 mM EGTA, 0.01% Brij-35, 2 μM Z'lyte Ser/Thr peptide 12 and 10 μM ATP (Invitrogen's FRET assay). After incubation of 60 minutes at room temperature, the reaction is stopped by addition of 5 μL development reagent containing protease mix. After 60 minutes room temperature the development reaction is stopped by adding 5 μl stop solution. The plate is then read in fluorescence plate reader with excitation: 390 nm and dual emission: 460 and 538 nm. Emission ratio is determined to the formula=Emission signal intensity at 460 nm/Emission signal intensity at 538 nm.

PLK3 (h) = PLK3 (h) (Homo sapiens, UniProt Q9H4B4); assay: PLK3 human kinase inhibition, SPA; format: biochemical; details: read-out: PLK3 pIC50 (converted)
Method: as §1, §2, §3
In a final reaction volume of 30 μl, PLK3 (h) (30 μg/ml) is incubated with 50 mM Hepes pH 8.0, 2 mM MnCl2, 1 mM DTT, 2 μM of peptide Biotin-Tds linker-[…], 0.1 μM ATP and 2 nM [γ-^33P-ATP] (6.0 μCi/ml). After incubation of 20 minutes at room temperature, the reaction is stopped by addition of 40 μL of stop solution containing 8.7 mM EDTA, BSA 0.17%, 0.17% Triton X-100, 25 mg/ml SPA beads (GE-healthcare). The plate is centrifuged and read for Scintillation imaging on Leadseeker.

GSK3β (h) = GSK3β (h) (Homo sapiens, UniProt P49841); assay: GSK-3β human kinase inhibition, SPA; format: biochemical; details: read-out: GSK3b pIC50 (converted)
Method: as §1, §2, §3
In a final reaction volume of 30 μl, GSK3β (h) (1 μg/ml) is incubated with 25 mM Tris pH 7.4, 10 mM MgCl2, 1 mM DTT, 1 μM peptide Biotin-[…]-OH, 1 μM ATP and 2 nM [γ-^33P-ATP] (6.0 μCi/ml). After incubation of 60 minutes at room temperature, the reaction is stopped by addition of 40 μL of stop solution containing 8.7 mM EDTA, BSA 0.17%, 0.17% Triton X-100, 6.25 mg/ml SPA beads (GE-healthcare). The plate is centrifuged and read for Scintillation imaging on Leadseeker.

HCT-116 = assay: Cellular proliferation assay (Alamar blue), HCT-116; format: cell-based; details: Homo sapiens, 10% FCS, 72 hours with compound, Alamar blue 4 h
Method: (§4) […] functional properties of these compounds were tested in cellular proliferation assays on a panel of different cell lines in the presence of 10% FCS serum (37° C. and 5% (v/v) CO2). In a first step these cells were seeded and incubated for 24 hours in the absence of compound. In the second step the cells were incubated for 72 hours with the compounds to be tested for 72 hours. The viable cell number was finally assessed in a standard Alamar blue cell viability assay.
(§5) The viable cell number was assessed by incubation for either 4 h (HCT-116, H1299) 6 h (U87-MG) or 24 h (A2780, MDA-MB-231) with Alamar blue (Resazurin 9 μg/ml, K-Ferrocyanide 90 μM, K-Ferricyanide 90 μM) and the converted fluorescent product was quantified on a fluorescent plate reader (544 nm/590 nm). Effect of the compounds is calculated as of on control cells.

A2780 = assay: Cellular proliferation assay (Alamar blue), A2780; format: cell-based; details: Homo sapiens, 10% FCS, 72 hours with compound, Alamar blue 24 h, read-out: A2780 (cellular proliferation assay, Table 4) (converted)
Method: as §4, §5

U87-MG = assay: Cellular proliferation assay (Alamar blue), U87-MG; format: cell-based; details: Homo sapiens, U-87 MG; 10% FCS; 72 hours with compound; Alamar blue 6 h; read-out: U87-MG (cellular proliferation assay, Table 4) (converted)
Method: as §4, §5

H1299 = assay: Cellular proliferation assay (Alamar blue), H1299; format: cell-based; details: Homo sapiens, NCI-H1299; 10% FCS; 72 hours with compound; Alamar blue 4 h
Method: as §4, §5

MDA-MB-231 = assay: Cellular proliferation assay (Alamar blue), MDA-MB-231; format: cell-based; details: Homo sapiens, 10% FCS, 72 hours with compound, Alamar blue 24 h, read-out: MDA/MB231 (cellular proliferation assay, Table 4) (converted)
Method: as §4, §5

PLK4 (h), sequence (O00444 whole entry): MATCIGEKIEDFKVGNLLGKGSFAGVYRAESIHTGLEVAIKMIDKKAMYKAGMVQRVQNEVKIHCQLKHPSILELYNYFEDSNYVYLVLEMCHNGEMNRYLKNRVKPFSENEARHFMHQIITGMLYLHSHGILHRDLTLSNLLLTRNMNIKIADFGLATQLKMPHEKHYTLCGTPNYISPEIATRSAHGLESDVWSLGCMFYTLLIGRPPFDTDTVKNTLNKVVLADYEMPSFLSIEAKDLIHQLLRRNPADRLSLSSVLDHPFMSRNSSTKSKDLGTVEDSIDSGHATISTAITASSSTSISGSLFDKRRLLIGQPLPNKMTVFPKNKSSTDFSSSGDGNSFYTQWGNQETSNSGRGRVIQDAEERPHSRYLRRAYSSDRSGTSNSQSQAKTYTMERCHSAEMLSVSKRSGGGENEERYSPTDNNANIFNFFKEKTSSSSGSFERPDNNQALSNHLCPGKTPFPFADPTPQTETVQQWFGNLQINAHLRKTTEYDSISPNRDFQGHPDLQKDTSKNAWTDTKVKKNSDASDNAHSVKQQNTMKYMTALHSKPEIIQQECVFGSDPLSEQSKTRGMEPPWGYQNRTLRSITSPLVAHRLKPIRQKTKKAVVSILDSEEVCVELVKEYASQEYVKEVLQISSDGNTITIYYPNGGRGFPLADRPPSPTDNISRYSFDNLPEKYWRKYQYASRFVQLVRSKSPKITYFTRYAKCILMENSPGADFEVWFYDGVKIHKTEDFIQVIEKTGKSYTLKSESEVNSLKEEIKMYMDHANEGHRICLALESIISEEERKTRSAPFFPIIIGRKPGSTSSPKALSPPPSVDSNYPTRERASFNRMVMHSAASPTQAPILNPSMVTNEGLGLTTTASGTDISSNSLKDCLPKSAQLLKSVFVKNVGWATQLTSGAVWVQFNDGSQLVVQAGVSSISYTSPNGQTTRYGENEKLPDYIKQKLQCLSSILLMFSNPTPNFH
AuroraB (h), sequence (Q96GD4 whole entry): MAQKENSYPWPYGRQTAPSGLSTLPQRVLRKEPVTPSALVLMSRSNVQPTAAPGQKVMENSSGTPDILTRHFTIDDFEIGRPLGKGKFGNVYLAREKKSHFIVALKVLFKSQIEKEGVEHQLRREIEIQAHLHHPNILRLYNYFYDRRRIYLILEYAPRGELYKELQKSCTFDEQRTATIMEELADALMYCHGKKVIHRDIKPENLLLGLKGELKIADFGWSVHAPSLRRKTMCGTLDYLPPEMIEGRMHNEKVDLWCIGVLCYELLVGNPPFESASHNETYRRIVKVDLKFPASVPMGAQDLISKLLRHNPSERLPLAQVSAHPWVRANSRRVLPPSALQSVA
GSK3β (h), sequence (P49841 whole entry): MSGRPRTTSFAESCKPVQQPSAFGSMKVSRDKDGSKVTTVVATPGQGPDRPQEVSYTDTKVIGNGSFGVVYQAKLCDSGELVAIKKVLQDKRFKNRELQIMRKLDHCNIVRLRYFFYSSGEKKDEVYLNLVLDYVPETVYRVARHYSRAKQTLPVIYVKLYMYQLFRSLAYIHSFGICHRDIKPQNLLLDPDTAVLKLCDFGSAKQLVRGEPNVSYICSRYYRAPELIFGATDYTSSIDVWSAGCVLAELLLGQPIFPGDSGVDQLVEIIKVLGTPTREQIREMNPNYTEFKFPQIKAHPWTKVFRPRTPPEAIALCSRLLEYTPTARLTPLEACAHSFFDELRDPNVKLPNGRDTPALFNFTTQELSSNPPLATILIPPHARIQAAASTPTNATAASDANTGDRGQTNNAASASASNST
PLK2 (h), sequence (Q9NYY3 whole entry): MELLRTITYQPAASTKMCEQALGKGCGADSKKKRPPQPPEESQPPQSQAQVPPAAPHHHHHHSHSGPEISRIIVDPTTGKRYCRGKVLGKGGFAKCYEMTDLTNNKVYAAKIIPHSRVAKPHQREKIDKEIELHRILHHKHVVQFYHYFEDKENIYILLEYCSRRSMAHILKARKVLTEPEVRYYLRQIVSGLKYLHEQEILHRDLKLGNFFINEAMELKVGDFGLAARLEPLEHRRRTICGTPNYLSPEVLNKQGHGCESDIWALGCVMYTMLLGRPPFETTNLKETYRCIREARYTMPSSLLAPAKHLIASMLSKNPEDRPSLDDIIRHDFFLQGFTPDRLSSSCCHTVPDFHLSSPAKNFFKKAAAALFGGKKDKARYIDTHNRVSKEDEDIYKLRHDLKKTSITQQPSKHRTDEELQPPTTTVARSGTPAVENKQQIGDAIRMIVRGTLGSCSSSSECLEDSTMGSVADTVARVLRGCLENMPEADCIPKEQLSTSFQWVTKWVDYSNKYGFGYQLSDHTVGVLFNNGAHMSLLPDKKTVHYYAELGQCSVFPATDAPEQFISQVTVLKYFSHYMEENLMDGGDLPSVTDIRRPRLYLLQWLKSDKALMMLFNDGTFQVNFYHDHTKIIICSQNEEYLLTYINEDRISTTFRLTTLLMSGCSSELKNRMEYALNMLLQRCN
PLK3 (h), sequence (Q9H4B4 whole entry): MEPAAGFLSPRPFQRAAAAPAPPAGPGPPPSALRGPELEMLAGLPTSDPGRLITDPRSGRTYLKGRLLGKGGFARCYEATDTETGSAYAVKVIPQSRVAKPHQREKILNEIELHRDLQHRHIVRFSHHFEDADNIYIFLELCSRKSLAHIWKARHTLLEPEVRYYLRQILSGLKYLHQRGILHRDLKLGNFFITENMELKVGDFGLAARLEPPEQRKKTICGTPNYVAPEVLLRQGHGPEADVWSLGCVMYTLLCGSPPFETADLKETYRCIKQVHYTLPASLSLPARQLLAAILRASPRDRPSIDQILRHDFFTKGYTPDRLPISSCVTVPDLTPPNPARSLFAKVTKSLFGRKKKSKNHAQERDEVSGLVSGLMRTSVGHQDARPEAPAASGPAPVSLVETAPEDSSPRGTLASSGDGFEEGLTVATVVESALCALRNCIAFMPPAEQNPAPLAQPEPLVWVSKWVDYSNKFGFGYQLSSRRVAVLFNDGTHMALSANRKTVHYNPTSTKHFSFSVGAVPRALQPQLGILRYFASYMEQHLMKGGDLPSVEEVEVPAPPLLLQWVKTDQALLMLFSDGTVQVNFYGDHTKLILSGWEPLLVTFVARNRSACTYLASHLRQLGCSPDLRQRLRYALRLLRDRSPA
PLK1 T210D (h), sequence (P53350 whole entry T210D): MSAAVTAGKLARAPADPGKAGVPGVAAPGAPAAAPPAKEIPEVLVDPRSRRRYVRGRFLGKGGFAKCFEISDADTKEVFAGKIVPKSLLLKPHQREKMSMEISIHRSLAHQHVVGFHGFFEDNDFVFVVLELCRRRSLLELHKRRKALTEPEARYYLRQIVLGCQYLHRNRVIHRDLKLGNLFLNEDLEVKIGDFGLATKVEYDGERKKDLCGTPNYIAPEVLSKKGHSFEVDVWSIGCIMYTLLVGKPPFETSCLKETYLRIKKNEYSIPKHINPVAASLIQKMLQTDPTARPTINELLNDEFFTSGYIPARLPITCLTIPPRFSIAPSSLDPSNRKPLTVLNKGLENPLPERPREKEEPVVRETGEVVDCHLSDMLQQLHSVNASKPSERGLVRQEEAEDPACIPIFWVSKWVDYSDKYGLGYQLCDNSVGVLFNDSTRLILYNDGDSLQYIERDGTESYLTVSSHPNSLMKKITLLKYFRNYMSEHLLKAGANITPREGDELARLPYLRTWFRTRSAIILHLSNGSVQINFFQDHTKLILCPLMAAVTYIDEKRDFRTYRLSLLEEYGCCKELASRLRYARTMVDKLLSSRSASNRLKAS
CDK1/CyclinB (h), sequence (P06493 whole entry): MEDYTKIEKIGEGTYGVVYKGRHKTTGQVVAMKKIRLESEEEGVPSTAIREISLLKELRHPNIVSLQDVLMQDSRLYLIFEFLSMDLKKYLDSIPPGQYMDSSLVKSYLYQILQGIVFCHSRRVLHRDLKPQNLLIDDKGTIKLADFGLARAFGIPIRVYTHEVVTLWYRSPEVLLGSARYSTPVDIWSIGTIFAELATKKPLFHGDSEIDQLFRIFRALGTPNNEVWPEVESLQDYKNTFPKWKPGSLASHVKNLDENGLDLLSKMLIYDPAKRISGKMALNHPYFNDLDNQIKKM
CDK1/CyclinB (h), sequence (P14635 whole entry partner): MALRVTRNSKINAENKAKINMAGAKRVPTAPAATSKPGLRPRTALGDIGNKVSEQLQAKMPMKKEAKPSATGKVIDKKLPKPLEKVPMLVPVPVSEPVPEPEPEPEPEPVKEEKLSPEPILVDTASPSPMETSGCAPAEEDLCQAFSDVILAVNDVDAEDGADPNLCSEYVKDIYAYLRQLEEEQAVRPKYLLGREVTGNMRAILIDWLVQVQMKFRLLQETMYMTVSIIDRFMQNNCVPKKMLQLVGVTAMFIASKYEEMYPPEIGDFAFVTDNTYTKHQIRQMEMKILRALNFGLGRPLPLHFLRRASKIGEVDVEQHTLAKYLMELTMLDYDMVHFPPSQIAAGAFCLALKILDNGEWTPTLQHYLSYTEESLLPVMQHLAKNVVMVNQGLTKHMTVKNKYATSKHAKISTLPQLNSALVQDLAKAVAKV
CDK4/CyclinD1 (h), sequence (P11802 whole entry): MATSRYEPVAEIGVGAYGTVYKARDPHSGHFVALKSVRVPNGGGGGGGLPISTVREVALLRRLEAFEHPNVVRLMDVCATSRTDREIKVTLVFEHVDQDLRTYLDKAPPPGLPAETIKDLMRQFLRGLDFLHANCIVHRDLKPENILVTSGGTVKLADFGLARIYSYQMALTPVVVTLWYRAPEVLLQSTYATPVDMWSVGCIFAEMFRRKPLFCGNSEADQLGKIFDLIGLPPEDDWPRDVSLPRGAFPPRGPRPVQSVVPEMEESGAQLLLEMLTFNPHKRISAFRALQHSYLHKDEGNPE
CDK4/CyclinD1 (h), sequence (P24385 whole entry partner): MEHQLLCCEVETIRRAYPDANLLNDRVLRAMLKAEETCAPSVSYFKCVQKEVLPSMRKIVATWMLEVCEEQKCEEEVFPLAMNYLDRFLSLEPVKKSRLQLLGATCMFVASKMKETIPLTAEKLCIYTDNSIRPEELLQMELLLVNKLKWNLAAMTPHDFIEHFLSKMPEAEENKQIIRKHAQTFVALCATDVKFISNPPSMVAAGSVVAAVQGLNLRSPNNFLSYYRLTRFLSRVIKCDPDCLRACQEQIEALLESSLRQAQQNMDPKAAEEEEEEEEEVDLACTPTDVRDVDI

Row | Structure (SMILES) | IC50 (PLK1 T210D (h)) [µM] | IC50 (PLK4 (h)) [µM] | IC50 (PLK2 (h)) [µM] | IC50 (AuroraB (h)) [µM] | IC50 (CDK4/CyclinD1 (h)) [µM] | IC50 (CDK1/CyclinB (h)) [µM] | IC50 (PLK3 (h)) [µM] | IC50 (GSK3β (h)) [µM] | pIC50 (HCT-116) | IC50 (A2780) [µM] | IC50 (U87-MG) [µM] | pIC50 (H1299) | IC50 (MDA-MB-231) [µM]
1 | COc1ccc2cc1CNCCNC(=O)C1CCN(CC1)Cc1cc(ccc1N1CCOCC1)Nc1nccc-2n1 [Compound 64] | > 10 | 1.2 | > 10 | 7.41 | > 10 | > 10 | > 10 | > 10 |  |  |  |  | 
2 | CC(C)Nc1cc2cc(c1)Nc1nccc(n1)-c1ccc(cc1)CN(C)CCCNC(=O)[C@H](CO)NC2 [Compound 111] | > 10 | 0.813 | > 3.02 | > 10 |  | > 10 | > 10 | > 10 | < 5.00 | > 10 | > 10 | < 5.00 | > 10
3 | COc1ccc2cc1CN(C)CCCNC(=O)[C@H](CO)NCc1cc(Br)cc(c1)Nc1nccc-2n1 [Compound 112] | > 10 | 0.912 | > 10 | 3.31 |  | > 10 | > 10 | 3.89 | < 5.00 | > 10 | > 10 | < 5.00 | > 10
4 | COc1cc2cc(c1OC)CNC(=O)[C@@H]1CCCN1Cc1cccc(c1)-c1ccnc(n1)N2 [Compound 150] | > 10 | 0.832 | > 10 | > 10 |  | 5.89 | > 10 | 0.1 | 5.37 | > 10 | > 10 | < 5.00 | > 10
5 | COc1ccc2cc1CN(C)CCNC(=O)[C@H](CO)NCc1cccc(c1)Nc1nccc-2n1 [Compound 120] | > 10 | 7.08 | > 10 | > 10 |  | > 10 | > 10 | > 10 | < 5.00 | > 10 | > 10 | < 5.00 | > 10
6 | COc1cc2cc(c1OC)CNC(=O)[C@H](CO)NCc1cccc(c1)-c1ccnc(n1)N2 [Compound 8] | > 10 | 0.363 | 3.63 | 4.68 |  | > 10 | 4.68 | 0.309 | 5.10 | > 10 | > 10 | < 5.00 | > 10
7 | O=C1CN2CCN(CC2)Cc2cc(ccc2N2CCOCC2)Nc2nccc(n2)-c2ccc(cc2)CNCCCN1 [Compound 139] | > 10 | 2.19 | > 10 | > 10 |  | > 10 | > 10 | > 10 | 5.13 | 7.41 | 2.09 | < 5.00 | > 10
